Results as given in PubChem BioAssay AID2060332 (Molecular Pharmacology Branch, DTP, NCI, 2025).

Test system: LG0567-F671-PDC multi-cell spheroid viability
Test: Anticancer human tumor LG0567-F671-PDC patient-derived lung adenocarcinoma cell line growth inhibition [IpAb]
Conditions: for IC50: curve of first compound; for viability, T/C: stronger effect = lower value
How it was run: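 Spheroids of 60% malignant cells, 25% HUVEC and 15% MSC were exposed to targeted agents combined with ipatasertib or abemaciclib. Doses started at or near clinical Cmax (10 microM when unknown) and fell in half-log steps.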

[1] = second compound 0.1 µM, first compound 0.0316 µM
[2] = second compound 0.1 µM, first compound 0.1 µM
[3] = second compound 0.316 µM, first compound 0.0316 µM
[4] = second compound 0.316 µM, first compound 0.1 µM
[5] = second compound 1 µM, first compound 0.0316 µM
[6] = second compound 1 µM, first compound 0.1 µM
[7] = second compound 3.16 µM, first compound 0.0316 µM
[8] = second compound 3.16 µM, first compound 0.1 µM
[9] = second compound 10 µM, first compound 0.0316 µM
[10] = second compound 10 µM, first compound 0.1 µM
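Also: viability read after 7 days of drug exposure.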
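For viability, T/C in this document: 100% = DMSO vehicle control luminescence.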

What does the source list for `Cn1ncc(Cl)c1-c1cc(C(=O)NC(CN)Cc2cccc(F)c2)sc1Cl` (stereo not given) + CC(C)NCC(C(=O)N1CCN(c2ncnc3c2C(C)CC3O)CC1)c1ccc(Cl)cc1?
IC50 (second compound 0.1 µM): 3220 nM; IC50 (second compound 0.316 µM): 3410 nM; IC50 (second compound 1 µM): 1910 nM; IC50 (second compound 3.16 µM): 3020 nM; IC50 (second compound 10 µM): 2390 nM; viability, T/C [1]: 68.7%; viability, T/C [2]: 68.3%; viability, T/C (second compound 0.1 µM, first compound 0.316 µM): 74.8%; viability, T/C (second compound 0.1 µM, first compound 1 µM): 81.1%; viability, T/C (second compound 0.1 µM, first compound 3.16 µM): 50.8%; viability, T/C (second compound 0.1 µM, first compound 10 µM): 0.2%; viability, T/C [3]: 79.6%; viability, T/C [4]: 81.4%; viability, T/C (second compound 0.316 µM, first compound 0.316 µM): 81.8%; viability, T/C (second compound 0.316 µM, first compound 1 µM): 61.7%; viability, T/C (second compound 0.316 µM, first compound 3.16 µM): 58.2%; viability, T/C (second compound 0.316 µM, first compound 10 µM): 0.18%; viability, T/C [5]: 71.1%; viability, T/C [6]: 89.5%; viability, T/C (second compound 1 µM, first compound 0.316 µM): 71.3%; viability, T/C (second compound 1 µM, first compound 1 µM): 67.1%; viability, T/C (second compound 1 µM, first compound 3.16 µM): 37.1%; viability, T/C (second compound 1 µM, first compound 10 µM): 0.16%; viability, T/C [7]: 70%; viability, T/C [8]: 82.5%; viability, T/C (second compound 3.16 µM, first compound 0.316 µM): 76.3%; viability, T/C (second compound 3.16 µM, first compound 1 µM): 51.5%; viability, T/C (second compound 3.16 µM, first compound 3.16 µM): 57%; viability, T/C (second compound 3.16 µM, first compound 10 µM): 0.39%; viability, T/C [9]: 77.5%; viability, T/C [10]: 76.9%; viability, T/C (second compound 10 µM, first compound 0.316 µM): 83.6%; viability, T/C (second compound 10 µM, first compound 1 µM): 60.2%; viability, T/C (second compound 10 µM, first compound 3.16 µM): 46.6%; viability, T/C (second compound 10 µM, first compound 10 µM): 0.19%

`Cn1ncnc1[C@H]1c2n[nH]c(=O)c3cc(F)cc(c23)N[C@@H]1c1ccc(F)cc1` + CC(C)NCC(C(=O)N1CCN(c2ncnc3c2C(C)CC3O)CC1)c1ccc(Cl)cc1 was tested. Which IC50 (second compound 0.1 µM) did it give?
Its IC50 is 21.9 nM.

And the IC50 (second compound 0.316 µM)?
Its IC50 is 9.77 nM.

And the IC50 (second compound 1 µM)?
Its IC50 is 18.1 nM.

And the IC50 (second compound 3.16 µM)?
The IC50 was 38.1 nM.

And the IC50 (second compound 10 µM)?
The IC50 was 20.5 nM.

What about the viability, T/C (second compound 0.1 µM, first compound 0.000316 µM) of the same molecule?
Its viability, T/C is 104%.

And the viability, T/C (second compound 0.1 µM, first compound 0.001 µM)?
The viability, T/C was 97.9%.

And the viability, T/C (second compound 0.1 µM, first compound 0.00316 µM)?
Its viability, T/C is 68.9%.

What about the viability, T/C (second compound 0.1 µM, first compound 0.01 µM) of the same molecule?
Its viability, T/C is 64.9%.

What about the viability, T/C [1] of the same molecule?
The viability, T/C was 42%.

And the viability, T/C [2]?
The viability, T/C was 41.1%.

And the viability, T/C (second compound 0.316 µM, first compound 0.000316 µM)?
Its viability, T/C is 69.1%.

What about the viability, T/C (second compound 0.316 µM, first compound 0.001 µM) of the same molecule?
Its viability, T/C is 70.5%.

And the viability, T/C (second compound 0.316 µM, first compound 0.00316 µM)?
The viability, T/C was 64.1%.

What about the viability, T/C (second compound 0.316 µM, first compound 0.01 µM) of the same molecule?
The viability, T/C was 44.9%.

What about the viability, T/C [3] of the same molecule?
The viability, T/C was 56.4%.

And the viability, T/C [4]?
Its viability, T/C is 47.8%.

What about the viability, T/C (second compound 1 µM, first compound 0.000316 µM) of the same molecule?
Its viability, T/C is 73.6%.

What about the viability, T/C (second compound 1 µM, first compound 0.001 µM) of the same molecule?
The viability, T/C was 74.5%.

And the viability, T/C (second compound 1 µM, first compound 0.00316 µM)?
The viability, T/C was 75%.

What about the viability, T/C (second compound 1 µM, first compound 0.01 µM) of the same molecule?
Its viability, T/C is 68.5%.

What about the viability, T/C [5] of the same molecule?
Its viability, T/C is 27.8%.

What about the viability, T/C [6] of the same molecule?
Its viability, T/C is 37.7%.

And the viability, T/C (second compound 3.16 µM, first compound 0.000316 µM)?
The viability, T/C was 79.3%.

What about the viability, T/C (second compound 3.16 µM, first compound 0.001 µM) of the same molecule?
The viability, T/C was 71.3%.

What about the viability, T/C (second compound 3.16 µM, first compound 0.00316 µM) of the same molecule?
The viability, T/C was 77.5%.

And the viability, T/C (second compound 3.16 µM, first compound 0.01 µM)?
The viability, T/C was 59.2%.

And the viability, T/C [7]?
The viability, T/C was 53.6%.

What about the viability, T/C [8] of the same molecule?
The viability, T/C was 37.6%.

And the viability, T/C (second compound 10 µM, first compound 0.000316 µM)?
The viability, T/C was 63.9%.

What about the viability, T/C (second compound 10 µM, first compound 0.001 µM) of the same molecule?
The viability, T/C was 70.5%.

And the viability, T/C (second compound 10 µM, first compound 0.00316 µM)?
Its viability, T/C is 70.6%.

What about the viability, T/C (second compound 10 µM, first compound 0.01 µM) of the same molecule?
Its viability, T/C is 50.8%.

And the viability, T/C [9]?
Its viability, T/C is 49.6%.

What about the viability, T/C [10] of the same molecule?
Its viability, T/C is 35.3%.

What does the source list for `Cn1cnc2c(F)c(Nc3ccc(Br)cc3Cl)c(C(=O)NOCCO)cc21` + CCN1CCN(Cc2ccc(Nc3ncc(F)c(-c4cc(F)c5nc(C)n(C(C)C)c5c4)n3)nc2)CC1?
IC50 (second compound 0.01 µM): 19.1 nM; IC50 (second compound 0.0316 µM): 11.9 nM; IC50 (second compound 0.1 µM): < 9.49 nM; IC50 (second compound 0.316 µM): < 9.49 nM; IC50 (second compound 1 µM): < 9.49 nM; viability, T/C (second compound 0.01 µM, first compound 0.00949 µM): 55%; viability, T/C (second compound 0.01 µM, first compound 0.03 µM): 48%; viability, T/C (second compound 0.01 µM, first compound 0.0949 µM): 28.8%; viability, T/C (second compound 0.01 µM, first compound 0.3 µM): 22.5%; viability, T/C (second compound 0.01 µM, first compound 0.949 µM): 19.9%; viability, T/C (second compound 0.01 µM, first compound 3 µM): 13.4%; viability, T/C (second compound 0.0316 µM, first compound 0.00949 µM): 53.5%; viability, T/C (second compound 0.0316 µM, first compound 0.03 µM): 36.4%; viability, T/C (second compound 0.0316 µM, first compound 0.0949 µM): 27.9%; viability, T/C (second compound 0.0316 µM, first compound 0.3 µM): 17.3%; viability, T/C (second compound 0.0316 µM, first compound 0.949 µM): 20.2%; viability, T/C (second compound 0.0316 µM, first compound 3 µM): 13.5%; viability, T/C (second compound 0.1 µM, first compound 0.00949 µM): 47.5%; viability, T/C (second compound 0.1 µM, first compound 0.03 µM): 38.5%; viability, T/C (second compound 0.1 µM, first compound 0.0949 µM): 28%; viability, T/C (second compound 0.1 µM, first compound 0.3 µM): 17.4%; viability, T/C (second compound 0.1 µM, first compound 0.949 µM): 17%; viability, T/C (second compound 0.1 µM, first compound 3 µM): 10.6%; viability, T/C (second compound 0.316 µM, first compound 0.00949 µM): 48.8%; viability, T/C (second compound 0.316 µM, first compound 0.03 µM): 29.9%; viability, T/C (second compound 0.316 µM, first compound 0.0949 µM): 33.6%; viability, T/C (second compound 0.316 µM, first compound 0.3 µM): 24.7%; viability, T/C (second compound 0.316 µM, first compound 0.949 µM): 17.4%; viability, T/C (second compound 0.316 µM, first compound 3 µM): 11.4%; viability, T/C (second compound 1 µM, first compound 0.00949 µM): 45%; viability, T/C (second compound 1 µM, first compound 0.03 µM): 35.2%; viability, T/C (second compound 1 µM, first compound 0.0949 µM): 29.6%; viability, T/C (second compound 1 µM, first compound 0.3 µM): 27.5%; viability, T/C (second compound 1 µM, first compound 0.949 µM): 18.6%; viability, T/C (second compound 1 µM, first compound 3 µM): 11.3%
